Common to all, as to type: cell-based
The test system of one assay is BT474 cells. The assay can be described thus: BT474 anti-proliferation assay (MTS). The following applies: Homo sapiens, BT-474; BT474 cells, 72 h, MTS; read-out: HER2 WT Amplification BT474 GI50. Here is the method: A compound's activity of selective inhibition for HER2 wild type amplification can be evaluated with BT474 cell line (ATCC® HTB-20™). The cell line expressed phosphorylated HER2 protein and its proliferation depended on the amplified gene, which could be used for in vitro PD and anti-proliferation assays.
The anti-proliferation activity of compounds were determined as following procedure: The BT474 cells were sorted in 384 well plates with the DMEM medium containing 10% FBS and […] overnight and then dosed with tested compounds at a series of concentrations (30 μM, 10 μM, 3 μM, 0.3 μM, 0.1 μM, 0.03 μM, 0.01 μM, 0.001 μM) on next day. Meanwhile, another cells plate was prepared for measuring GO value on next day. The dosed plates were incubate for 72h at 37° C. with 5% CO2 and the number of viable cells in each well of GO or dosed plates were measured by MTS (CellTiter 96® AQueous One Solution Cell Proliferation Assay, Promega) endpoint. This assay is a colorimetric method for determining the number viable cells in the proliferation assay. Detection reagents (5 μl) was dispensed into per well, and the plates were incubated for 2 hrs at room temperature. Then, absorbance at 490 nm and 650 nm (reference wavelength) in each well was measured using the safile II. (Tecan). The percentage of proliferation was got from the formula: % Proliferation=100×(G3 value of sample well-Go value)/(G3 value of DMSO control-Go value). The GI50 values were further calculated as the compounds concentration required for 50% Proliferation in best-fit curves using Genedata Screener® software.

The next assay deals with WT EGFR (Homo sapiens (Human), UniProt P00533). The assay can be described thus: EGFR (Y1068) phosphorylation in NCI-H838 cells (MSD). Particulars: p-EGFR (Y1068)/total EGFR, 4 h, hEGF stimulation.
The target of a further assay is WT HER2 (Homo sapiens (Human), UniProt P04626). As to the kind of experiment: HER2 (Y1248) phosphorylation in BT474 cells (MSD). Particulars: p-HER2 (Y1248)/total HER2, 4 h, read-out: HER2 WT Amplification BT474 IC50. Here is the method:
The plates were incubated for 4 h at 37° C. with 5% CO2 and then the HER2 (Y1248) phosphorylation level of cells in each well were measured with MSD Kit (Phospho-ErbB2 ([…]) Assay Whole Cell Lysate Kit: Cat # […]-3). The assay is a electrochemiluminescent method (MESO SCALE DISCOVERY) for determining both phosphorylated and total HER2 of cells with an MSD SECTOR® Imager and then the ratio of p-HER2/total HER2 can be generated by the machine.

Consider 19 compounds from patent US10822334B2, “ErbB receptor inhibitors” (Dizal (Jiangsu) Pharmaceutical Co., Ltd., priority 2018, dated 2020).

Chain of WT HER2 (P04626 23-1255): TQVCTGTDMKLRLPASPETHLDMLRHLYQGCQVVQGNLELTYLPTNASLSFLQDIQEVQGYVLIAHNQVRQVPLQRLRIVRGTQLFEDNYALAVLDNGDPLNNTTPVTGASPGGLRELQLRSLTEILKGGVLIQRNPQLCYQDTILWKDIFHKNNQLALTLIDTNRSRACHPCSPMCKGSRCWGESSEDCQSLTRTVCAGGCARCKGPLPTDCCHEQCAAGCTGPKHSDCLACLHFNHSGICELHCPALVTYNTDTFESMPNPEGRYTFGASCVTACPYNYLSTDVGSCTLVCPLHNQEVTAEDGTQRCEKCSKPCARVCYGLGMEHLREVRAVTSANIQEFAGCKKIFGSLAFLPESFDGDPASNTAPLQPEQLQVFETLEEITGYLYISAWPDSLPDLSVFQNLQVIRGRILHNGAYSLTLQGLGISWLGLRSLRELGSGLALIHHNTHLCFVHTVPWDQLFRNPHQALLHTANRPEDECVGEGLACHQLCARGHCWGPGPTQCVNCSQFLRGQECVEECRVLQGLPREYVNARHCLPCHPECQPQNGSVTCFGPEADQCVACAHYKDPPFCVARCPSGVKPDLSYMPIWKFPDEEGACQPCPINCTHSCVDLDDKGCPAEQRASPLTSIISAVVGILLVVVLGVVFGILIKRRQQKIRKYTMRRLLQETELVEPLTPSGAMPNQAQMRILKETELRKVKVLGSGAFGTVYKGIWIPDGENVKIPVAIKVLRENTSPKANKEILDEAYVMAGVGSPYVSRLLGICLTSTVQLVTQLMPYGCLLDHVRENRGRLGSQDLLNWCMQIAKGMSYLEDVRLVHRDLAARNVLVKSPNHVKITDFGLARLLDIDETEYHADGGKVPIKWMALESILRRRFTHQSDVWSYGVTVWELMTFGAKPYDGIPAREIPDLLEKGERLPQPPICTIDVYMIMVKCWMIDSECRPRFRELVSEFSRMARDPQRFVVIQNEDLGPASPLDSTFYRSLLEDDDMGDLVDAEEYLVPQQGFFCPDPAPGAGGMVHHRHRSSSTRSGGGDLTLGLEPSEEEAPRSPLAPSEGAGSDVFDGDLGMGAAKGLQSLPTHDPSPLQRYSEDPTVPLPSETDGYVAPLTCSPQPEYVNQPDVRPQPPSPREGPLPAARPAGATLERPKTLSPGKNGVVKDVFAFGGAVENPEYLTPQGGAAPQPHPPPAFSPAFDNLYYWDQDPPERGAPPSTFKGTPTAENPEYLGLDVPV
Chain of WT EGFR (P00533 25-1210): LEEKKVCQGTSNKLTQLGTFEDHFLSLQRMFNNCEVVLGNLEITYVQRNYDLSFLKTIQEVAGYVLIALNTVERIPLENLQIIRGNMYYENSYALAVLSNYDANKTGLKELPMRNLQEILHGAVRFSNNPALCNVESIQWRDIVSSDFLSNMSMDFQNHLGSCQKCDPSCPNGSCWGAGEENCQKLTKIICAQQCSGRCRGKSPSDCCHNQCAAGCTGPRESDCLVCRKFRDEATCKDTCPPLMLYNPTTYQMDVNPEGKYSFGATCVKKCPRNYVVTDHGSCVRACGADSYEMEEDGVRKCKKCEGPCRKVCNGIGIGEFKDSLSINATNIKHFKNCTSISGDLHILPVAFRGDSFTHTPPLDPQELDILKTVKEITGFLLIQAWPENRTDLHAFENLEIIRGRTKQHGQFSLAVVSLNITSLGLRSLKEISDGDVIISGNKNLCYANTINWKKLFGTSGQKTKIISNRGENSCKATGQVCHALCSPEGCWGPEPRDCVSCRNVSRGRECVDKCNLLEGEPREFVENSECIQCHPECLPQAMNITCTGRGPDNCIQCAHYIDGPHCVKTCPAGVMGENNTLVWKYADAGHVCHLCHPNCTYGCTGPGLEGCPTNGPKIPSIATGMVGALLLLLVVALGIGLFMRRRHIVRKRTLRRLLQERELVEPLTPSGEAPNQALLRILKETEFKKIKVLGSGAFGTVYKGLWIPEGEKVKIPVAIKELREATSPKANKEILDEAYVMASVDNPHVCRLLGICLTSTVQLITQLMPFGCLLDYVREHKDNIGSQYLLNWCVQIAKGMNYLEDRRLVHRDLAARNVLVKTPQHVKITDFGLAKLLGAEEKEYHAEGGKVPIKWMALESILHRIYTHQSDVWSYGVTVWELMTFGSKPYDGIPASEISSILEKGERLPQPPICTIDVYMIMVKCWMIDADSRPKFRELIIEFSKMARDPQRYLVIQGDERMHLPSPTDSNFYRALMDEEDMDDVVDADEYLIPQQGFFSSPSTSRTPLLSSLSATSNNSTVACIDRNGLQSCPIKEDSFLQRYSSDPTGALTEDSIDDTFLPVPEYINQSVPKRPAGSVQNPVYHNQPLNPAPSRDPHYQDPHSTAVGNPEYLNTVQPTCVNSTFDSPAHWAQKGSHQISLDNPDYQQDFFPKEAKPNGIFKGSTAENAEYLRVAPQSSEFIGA

A word on the GI50: it is the concentration that inhibits growth by half. With `CS(=O)(=O)CCNCc1ccc(-c2ccc3ncnc(Nc4ccc(OCc5cccc(F)c5)c(Cl)c4)c3c2)o1` [Lapatinib, reference compound], the GI50 with BT474 cells was 0.0121 ± 0.00278 µM.

The IC50 is the midpoint of a concentration-inhibition curve. On to `Cc1cc(Nc2ncnc3ccc(NC4=NC(C)(C)CO4)cc23)ccc1Oc1ccn2ncnc2c1` [ONT380, reference compound], for which the IC50 at WT EGFR is more than 3 µM; at WT HER2 it was 0.002 µM. The GI50 with BT474 cells stood at 0.0108 ± 0.00413 µM.

With `Cc1cc(Nc2ncnc3cccc(OC4CCN(C)CC4F)c23)ccc1Oc1ccn2ccnc2c1` (single isomer, unassigned) [Compound 11], the GI50 with BT474 cells amounted to 0.0246 ± 0.00485 µM.

On to `COc1cc(OC2CCN(C)CC2(F)F)c2c(Nc3ccc(Oc4ccn5ccnc5c4)c(C)c3)ncnc2c1` (single isomer, unassigned) [Compound 8, 5-((3,3-difluoro-1-methylpiperidin-4-yl)oxy)-N-(4-(imidazo[1,2-a]pyridin-7-yloxy)-3-methylphenyl)-7-methoxyquinazolin-4-amine], for which the IC50 amounted to 1.8 µM on WT EGFR and 0.00692 µM at WT HER2. In the assay with BT474 cells, the GI50 came to 0.00747 ± 0.00299 µM.

As to `Cc1cc(Nc2ncnc3cc(OC4CCOC4)cc(OC4CCN(C)CC4(F)F)c23)ccc1Oc1ccn2ncnc2c1` (single isomer, unassigned) [Compound 18, N-(4-([1,2,4]triazolo[1,5-a]pyridin-7-yloxy)-3-methylphenyl)-5-((3,3-difluoro-1-methylpiperidin-4-yl)oxy)-7-((tetrahydrofuran-3-yl)oxy)quinazolin-4-amine], the IC50 on WT EGFR is 0.515 µM; at WT HER2, 0.0126 µM. In addition, the GI50 with BT474 cells came out at 0.00858 ± 0.00355 µM.

Regarding `COc1cc(OC2CCN(C)CC2(F)F)c2c(Nc3ccc(Oc4cc5ncnn5cc4F)c(C)c3)ncnc2c1` (single isomer, unassigned) [Compound 22, 5-((3,3-difluoro-1-methylpiperidin-4-yl)oxy)-N-(4-((6-fluoro-[1,2,4]triazolo[1,5-a]pyridin-7-yl)oxy)-3-methylphenyl)-7-methoxyquinazolin-4-amine], the IC50 at WT EGFR came to 2.92 ± 2.32 µM; at WT HER2, 0.0116 ± 0.0104 µM. In the assay with BT474 cells, the GI50 is 0.0186 ± 0.00651 µM.

With `COc1ccc2ncnc(Nc3ccc(Oc4ccn5ncnc5c4)c(C)c3)c2c1OC1CCN(C)CC1F` (single isomer, unassigned) [Compound 3, N-(4-([1,2,4]triazolo[1,5-a]pyridin-7-yloxy)-3-methylphenyl)-5-((3-fluoro-1-methylpiperidin-4-yl)oxy)-6-methoxyquinazolin-4-amine], the figures for the 50% inhibitory concentration (IC50) at WT EGFR and at WT HER2 were more than 3 µM and 0.026 µM, respectively. In addition, the GI50 with BT474 cells was found to be 0.0447 ± 0.0042 µM.

In the case of `[2H]C([2H])([2H])Oc1ccc2ncnc(Nc3ccc(Oc4ccn5ncnc5c4)c(C)c3)c2c1OC1CCN(C([2H])([2H])[2H])CC1(F)F` (racemic) [Compound 26, (±)-N-(4-([1,2,4]triazolo[1,5-a]pyridin-7-yloxy)-3-methylphenyl)-5-((3,3-difluoro-1-(methyl-d3)piperidin-4-yl)oxy)-6-(methoxy-d3)quinazolin-4-amine], the IC50 is more than 10 µM at WT EGFR and 0.00584 µM at WT HER2. The GI50 in the assay with BT474 cells stood at 0.0141 µM.

Regarding `Cc1cc(Nc2ncnc3cccc(O[C@H]4C[C@H]5CC[C@@H](C4)N5CC(F)F)c23)ccc1Oc1ccn2ncnc2c1` [Compound 2, N-(4-([1,2,4]triazolo[1,5-a]pyridin-7-yloxy)-3-methylphenyl)-5-(((1R,3r,5S)-8-(2,2-difluoroethyl)-8-azabicyclo[3.2.1]octan-3-yl)oxy)quinazolin-4-amine], at WT HER2, the IC50 was determined as 0.00617 µM. Further, the concentration for 50% growth inhibition (GI50) in the assay with BT474 cells was determined as 0.019 ± 0.0014 µM.

For `Cc1cc(Nc2ncnc3cccc(OC4CCN(C)CC4(F)F)c23)ccc1Oc1ccc2ccnn2c1` (single isomer, unassigned) [Compound 9, 5-((3,3-difluoro-1-methylpiperidin-4-yl)oxy)-N-(3-methyl-4-(pyrazolo[1,5-a]pyridin-6-yloxy)phenyl)quinazolin-4-amine], the values for the IC50 against WT EGFR and at WT HER2 were 1.03 µM and 0.0162 µM, respectively. Further, the GI50 in the assay with BT474 cells is 0.0273 ± 0.0145 µM.

On to `Cc1cc(Nc2ncnc3cccc(OC4CCNC(C(F)F)C4)c23)ccc1Oc1ccn2ccnc2c1` (racemic) [Compound 15, (±)-(5-(((2S,4S)-2-(difluoromethyl)piperidin-4-yl)oxy)-N-(4-(imidazo[1,2-a]pyridin-7-yloxy)-3-methylphenyl)quinazolin-4-amine], for which the IC50 against WT EGFR was more than 10 µM; on WT HER2 it was 0.00255 µM.

For `Cc1cc(Nc2ncnc3cccc(OC4CCN(C)CC4(F)F)c23)ccc1Oc1ccc2c(c1)ncn2C` (single isomer, unassigned) [Compound 7, 5-((3,3-difluoro-1-methylpiperidin-4-yl)oxy)-N-(3-methyl-4-((1-methyl-1H-benzo[d]imidazol-5-yl)oxy)phenyl)quinazolin-4-amine], the IC50 on WT EGFR was more than 3 µM; at WT HER2, 0.00557 µM. Also, the GI50 with BT474 cells worked out at 0.00836 ± 0.00015 µM.

Regarding `CCN1CCC(Oc2cccc3ncnc(Nc4ccc(Oc5ccn6ncnc6c5)c(C)c4)c23)C(F)(F)C1` (single isomer, unassigned) [Compound 12], the IC50 is more than 3 µM against WT EGFR and 0.00756 µM at WT HER2. Besides, the 50% growth inhibitory concentration (GI50) with BT474 cells amounted to 0.00902 µM.

Turning to `COc1ccc2ncnc(Nc3ccc(Oc4cc5ncnn5cc4F)c(C)c3)c2c1OC1CCN(C)CC1(F)F` (single isomer, unassigned) [Compound 23, 5-((3,3-difluoro-1-methylpiperidin-4-yl)oxy)-N-(4-((6-fluoro-[1,2,4]triazolo[1,5-a]pyridin-7-yl)oxy)-3-methylphenyl)-6-methoxyquinazolin-4-amine], the IC50 at WT EGFR was more than 10 µM; at WT HER2 it was 0.00617 µM. Further, in the assay with BT474 cells, the GI50 was found to be 0.0117 µM.

`COc1ccc2ncnc(Nc3ccc(Oc4ccn5ncnc5c4)c(C)c3)c2c1OC[C@H]1CC(F)(F)CCN1C` [Compound 4, (R)-N-(4-([1,2,4]triazolo[1,5-a]pyridin-7-yloxy)-3-methylphenyl)-5-((4,4-difluoro-1-methylpiperidin-2-yl)methoxy)-6-methoxyquinazolin-4-amine]: the IC50 against WT EGFR is more than 3 µM; on WT HER2, 0.00796 µM. The GI50 in the assay with BT474 cells was 0.00433 ± 0.00063 µM.

For `Cc1cc(Nc2ncnc3cccc(OC4CCN(C)CCC4(F)F)c23)ccc1Oc1ccn2ccnc2c1` (single isomer, unassigned) [Compound 21, 5-((5,5-difluoro-1-methylazepan-4-yl)oxy)-N-(4-(imidazo[1,2-a]pyridin-7-yloxy)-3-methylphenyl)quinazolin-4-amine], the IC50 on WT HER2 came to 0.0613 ± 0.0112 µM. The GI50 with BT474 cells amounted to 0.0159 ± 0.00657 µM.

Regarding `Cc1cc(Nc2ncnc3cc(N)cc(OC4CCN(C)CC4(F)F)c23)ccc1Oc1ccn2ncnc2c1` (single isomer, unassigned) [Compound 10, N^4-(4-([1,2,4]triazolo[1,5-a]pyridin-7-yloxy)-3-methylphenyl)-5-((3,3-difluoro-1-methylpiperidin-4-yl)oxy)quinazoline-4,7-diamine], the values for the IC50 against WT EGFR and on WT HER2 were more than 3 µM and 0.00786 µM, respectively. In addition, in the assay on BT474 cells, the GI50 was determined as 0.019 ± 0.00246 µM.

Take `Cc1cc(Nc2ncnc3cccc(OC45CCN(CC4)CC5)c23)ccc1Oc1ccn2ccnc2c1` [Compound 13, N-(4-(imidazo[1,2-a]pyridin-7-yloxy)-3-methylphenyl)-5-(quinuclidin-4-yloxy)quinazolin-4-amine]: the values for the IC50 against WT EGFR and at WT HER2 were more than 3 µM and 0.0218 µM, respectively. Further, the GI50 in the assay with BT474 cells is 0.0498 ± 0.00687 µM.

Regarding `COc1ccc2ncnc(Nc3ccc(Oc4ccn5ncnc5c4)c(C)c3)c2c1OC1CN(C)CCC1(F)F` (single isomer, unassigned) [Compound 5, N-(4-([1,2,4]triazolo[1,5-a]pyridin-7-yloxy)-3-methylphenyl)-5-((4,4-difluoro-1-methylpiperidin-3-yl)oxy)-6-methoxyquinazolin-4-amine], the IC50 was more than 3 µM against WT EGFR and 0.00683 µM on WT HER2. Further, the GI50 with BT474 cells worked out at 0.0151 ± 0.00819 µM.
